# Measurements from patent publication US7645751B2, “Mandelic acid derivatives and their use as thrombin inhibitors” (AstraZeneca, priority 2000, dated 2010).
# Counter-ions that a name gives are not always drawn.
# Assays:
# [1] = Test G: determination of in vitro stability in liver microsomes (human); format: in vitro ADME; conditions: 37° C., up to 60 min, NADH/NADPH
# Procedure: (§1) Liver microsomes are prepared from Sprague-Dawley rats and human liver samples according to internal SOPs. The compounds are incubated at 37° C. at a total microsome protein concentration of 3 mg/mL in a 0.05 mol/L TRIS buffer at pH 7.4, in the presence of the cofactors NADH (2.5 mmol/L) and NADPH (0.8 mmol/L). The initial concentration of compound is 5 or 10 μmol/L. Samples are taken for analysis up to 60 minutes after the start of the incubation. The enzymatic activity in the collected sample is immediately stopped by adding 20% […] at a volume corresponding to 3.3% of the total sample volume. The concentration of compound remaining (FINAL CONC) in the 60 min. sample is determined by means of LCMS using a sample collected at zero time as reference (START CONC). The % of degraded thrombin inhibitor is calculated as: […]
# [2] = Test G: determination of in vitro stability in liver microsomes (rat); format: in vitro ADME; conditions: 37° C., up to 60 min, NADH/NADPH
# Procedure: as §1
melting point,Compound,conversion to the corresponding active inhibitor (free amidine) in liver microsomes from humans [1],conversion to the corresponding active inhibitor (free amidine) in liver microsomes from rats [2]
86 to 87 °C,"N=C(N)c1cnc(CNC(=O)[C@@H]2CCN2C(=O)[C@H](O)c2cc(Cl)cc(OC(F)F)c2)nc1 (as salt: TFA) [Example 36, Ph(3-Cl)(5-OCHF2)—(R)CH(OH)C(O)-Aze-NH—CH2-((5-amidino)-2-pyrimidinyl)]",–,–
–,"NC(=NO)c1ccc(CNC(=O)[C@@H]2CCN2C(=O)[C@H](O)c2cc(Cl)cc(OC(F)F)c2)cc1 [Example 2, Ph(3-Cl)(5-OCHF2)—(R)CH(OH)C(O)-Aze-Pab(OH)]",converted to the corresponding active inhibitor (free amidine),converted to the corresponding active inhibitor (free amidine)
–,"CON=C(N)c1ccc(CNC(=O)[C@@H]2CCN2C(=O)[C@H](O)c2cc(Cl)cc(OC(F)(F)F)c2)cc1 [Example 7, Ph(3-Cl)(5-OCF3)—(R)CH(OH)C(O)-Aze-Pab(OMe)]",converted to the corresponding active inhibitor (free amidine),converted to the corresponding active inhibitor (free amidine)
–,"CON=C(N)c1ccc(CNC(=O)[C@@H]2CCN2C(=O)[C@H](CO)c2cc(Cl)cc(OC(F)(F)F)c2)cc1 [Example 11, Ph(3-Cl)(5-OCF3)—(S)CH(CH2OH)C(O)-Aze-Pab(OMe)]",converted to the corresponding active inhibitor (free amidine),converted to the corresponding active inhibitor (free amidine)
–,"CON=C(N)c1ccc(CNC(=O)[C@@H]2CCN2C(=O)[C@H](O)c2cc(Cl)cc(OC(F)F)c2)cc1 [Example 12, Ph(3-Cl)(5-OCHF2)—(R)CH(OH)C(O)-Aze-Pab(OMe)]",converted to the corresponding active inhibitor (free amidine),converted to the corresponding active inhibitor (free amidine)
–,"CON=C(N)c1ccc(CNC(=O)[C@@H]2CCN2C(=O)[C@H](O)c2cc(Cl)cc(OCC(F)(F)F)c2)cc1 [Example 16, Ph(3-Cl)(5-OCH2CF3)—(R)CH(OH)C(O)-Aze-Pab(OMe)]",converted to the corresponding active inhibitor (free amidine),converted to the corresponding active inhibitor (free amidine)
–,"CON=C(N)c1ccc(CNC(=O)[C@@H]2CCN2C(=O)[C@H](O)c2cc(Cl)cc(OCC(F)F)c2)cc1 [Example 18, Ph(3-Cl)(5-OCH2CHF2)—(R)CH(OH)C(O)-Aze-Pab(OMe)]",converted to the corresponding active inhibitor (free amidine),converted to the corresponding active inhibitor (free amidine)
–,"CON=C(N)c1ccc(CNC(=O)[C@@H]2CCN2C(=O)[C@H](O)c2cc(Cl)cc(OCF)c2)cc1 [Example 20, Ph(3-Cl)(5-OCH2F)—(R)CH(OH)C(O)-Aze-Pab(OMe)]",converted to the corresponding active inhibitor (free amidine),converted to the corresponding active inhibitor (free amidine)
–,"CON=C(N)c1ccc(CNC(=O)[C@@H]2CCN2C(=O)[C@H](O)c2cc(Cl)cc(OCCF)c2)cc1 [Example 22, Ph(3-Cl)(5-OCH2CH2F)—(R)CH(OH)C(O)-Aze-Pab(OMe)]",converted to the corresponding active inhibitor (free amidine),converted to the corresponding active inhibitor (free amidine)
–,"CON=C(N)c1ccc(CNC(=O)[C@@H]2CCN2C(=O)[C@H](O)c2cc(Cl)cc(OC(CF)CF)c2)cc1 [Example 24, Ph(3-Cl)(5-OCH(CH2F)2)—(R)CH(OH)C(O)-Aze-Pab(OMe)]",converted to the corresponding active inhibitor (free amidine),converted to the corresponding active inhibitor (free amidine)
–,"CON=C(N)c1ccc(CNC(=O)[C@@H]2CCN2C(=O)[C@H](O)c2cc(F)cc(OC(F)F)c2)cc1 [Example 26, Ph(3-F)(5-OCHF2)—(R)CH(OH)C(O)-Aze-Pab(OMe)]",converted to the corresponding active inhibitor (free amidine),converted to the corresponding active inhibitor (free amidine)
–,"CON=C(N)c1ccc(CNC(=O)[C@@H]2CCCN2C(=O)[C@H](O)c2cc(Cl)cc(OC(F)F)c2)cc1 [Example 33, Ph(3-Cl)(5-OCHF2)—(R)CH(OH)—C(O)-Pro-Pab(OMe)]",converted to the corresponding active inhibitor (free amidine),converted to the corresponding active inhibitor (free amidine)
–,"CO/N=C(\N)c1cnc(CNC(=O)[C@@H]2CCN2C(=O)[C@H](O)c2cc(Cl)cc(OC(F)F)c2)nc1 [Example 37, Ph(3-Cl)(5-OCHF2)—(R)CH(OH)C(O)-Aze-NH—CH2-((5-methoxyamidino)-2-pyrimidinyl)]",converted to the corresponding active inhibitor (free amidine),converted to the corresponding active inhibitor (free amidine)
–,"CO/N=C(\N)c1cc(F)c(CNC(=O)[C@@H]2CCN2C(=O)[C@H](O)c2cc(Cl)cc(OC(F)F)c2)c(F)c1 [Example 40, Ph(3-Cl)(5-OCHF2)—(R)CH(OH)C(O)-Aze-Pab(2,6-diF)(OMe)]",converted to the corresponding active inhibitor (free amidine),converted to the corresponding active inhibitor (free amidine)
–,"CCON=C(N)c1ccc(CNC(=O)[C@@H]2CCN2C(=O)[C@H](O)c2cc(Cl)cc(OC(F)F)c2)cc1 [Example 43, Ph(3-Cl)(5-OCHF2)—(R)CH(OH)C(O)-Aze-Pab(OEt)]",converted to the corresponding active inhibitor (free amidine),converted to the corresponding active inhibitor (free amidine)
–,"CC(C)ON=C(N)c1ccc(CNC(=O)[C@@H]2CCN2C(=O)[C@H](O)c2cc(Cl)cc(OC(F)F)c2)cc1 [Example 45, Ph(3-Cl)(5-OCHF2)—(R)CH(OH)C(O)-Aze-Pab(OiPr)]",converted to the corresponding active inhibitor (free amidine),converted to the corresponding active inhibitor (free amidine)
–,Ph(3-Br)(5-OCHF2)—(R)CH(OH)C(O)-Aze-Pab(OMe) [Example 29],converted to the corresponding active inhibitor (free amidine),converted to the corresponding active inhibitor (free amidine)
–,Ph(3-Cl)(5-OCHF2)—(R)CH(OH)C(O)-Aze-Pab(OcBu) [Example 1],converted to the corresponding active inhibitor (free amidine),converted to the corresponding active inhibitor (free amidine)
